Data as given in US9555061B2, “Synthesis and analysis of compounds capable of inducing differentiation of human mesenchymal stems cells into hepatocytes” (National University Corporation Torrori University, priority 2011, dated 2017).
Read-outs that look alike come from different tables or passages of the source.

Key:
[1] = test system: clinical specimen-derived mesenchymal stem cells; assay: Immunofluorescence staining in clinical specimen-derived mesenchymal stem cells; type: cell-based, human; details: day 8; PN-3-13 20 μM, IC-2 40 μM
Description: A cover glass that had been sterilized with 100% ethanol was placed on a 12-well plate. Cells were seeded on the cover glass at a cell density of 1.8×10^4 cells/cm^2. This day was designated as day 0. At day 1 corresponding to the next day, the medium was changed to a medium containing HC-2 (at a final concentration of 20 μM), PN-3-13 (at a final concentration of 20 μM), IC-2 (at a final concentration of 40 μM), or 0.1% DMSO. At day 4, the medium was changed in a manner similar to that at day 1. At day 8, the culture medium was removed and the cells were washed twice with PBS. Then, in order to perform immunostaining of albumin, the cells were fixed for 20 min with 4% paraformaldehyde (Nacalai Tesque) containing 8% sucrose (Wako Pure Chemical Industries, Ltd.). For immunostaining of C/EBPα or CYP1A1, the cells were fixed for 20 min with 4% paraformaldehyde. After that, the cells were permeated with 0.2% Triton X-100 (Wako Pure Chemical Industries, Ltd.) for 10 min and were then blocked in 3% BSA (Nacalai Tesque) at room temperature for 30 min without shaking.
After the primary antibody reaction, the cells were washed with 0.1% BSA/PBS. […] The cells were incubated with each antibody, and were kept in a dark condition at room temperature for 1 h to carry out a secondary antibody reaction. Their nuclei were stained with DAPI (Cell Signaling Technology Inc.). […]

[2] = test system: Wnt/β-catenin signaling pathway; assay: Ability of inhibiting Wnt/β-catenin pathway, luciferase assay (UE7T-13); type: cell-based, human; details: 8 days after the treatment; pTCF4-CMV-luciferase reporter
From the text: FIG. 3 is a schematic diagram illustrating how to establish a human mesenchymal stem cell stably expressing a β-catenin/TCF4/luciferase reporter gene. FIG. 3 illustrates how to construct pTCF4-CMVpro-GL4.20 plasmid by using a luciferase expression vector. The pTCF4-CMVpro-GL4.20 plasmid contains three TCF4 sequences […] upstream of a CMV promoter to express luciferase. In addition, pCMVpro-GL4.20 plasmid was constructed as a control. The resulting plasmids were each linearized, introduced into UE7T-13 by electroporation, and selected using puromycin (0.25 μg/ml) supplemented in a medium. Puromycin-resistant cells were cloned and used for a luciferase assay.
The cell line having a vector stably expressing luciferase was seeded on a 24-well plate, and was cultured at 37° C. At the next day, the medium was changed to a medium containing IC-2, etc., and the cell line was further cultured at 37° C. After that, at days 1, 4, and 8, a luciferase assay system (Promega) was used and the luciferase activity was read with a fluorescence plate reader (ARVO) at a wavelength of 556 nm.

UE7T-13 cells [3] = assay: Proliferation potential (toxicity), MTT assay (UE7T-13); details: days 2, 4, 8 of treatment
[4] = test system: clinical specimen-derived mesenchymal stem cells; assay: RT-PCR of hepatocyte differentiation marker in clinical specimen-derived mesenchymal stem cells; type: cell-based, human; details: hexachlorophene 4 μM, HC-2 20 μM, PN-3-13 20 μM, IC-2 40 μM
Description: A fresh bone marrow aspirate was collected under informed consent from a patient (a person) with osteoarthritis who underwent replacement arthroplasty at the Department of Orthopedic Surgery, Tottori University Hospital. This aspirate was subjected to density gradient centrifugation using ficoll (Amersham Biosciences) to separate bone marrow mononuclear cells (FIG. 31). These bone marrow mononuclear cells were suspended in 1 ml of Hanks' balanced salt solution (HBSS, Gibco, Life Technologies Corp.) supplemented with a 100-fold diluted APC-labeled anti-CD90 antibody, a 407-fold diluted PE-labeled anti-CD271 antibody, and 2% fetal bovine serum (FBS, Defined, Thermo Fisher Scientific Inc.), and were stained on ice for 30 min. A flow cytometer (MoFlo XDP, Beckman Coulter Inc.) was used to selectively separate mesenchymal stem cells. The resulting cells were cultured in Dulbecco's Modified Eagle's Medium (Low Glucose, Gibco, Life Technologies Corp.) containing 20% FBS, 100 U/ml penicillin, […] streptomycin (Nacalai Tesque), and 20 ng/ml basic fibroblast growth factor (TRANS GENIC INC., Ltd.) on a 35-mm dish under conditions at 37° C. and 5% CO2. The medium was changed every 4 days. After colonies were formed, the cells were detached using a 0.025% trypsin/1 mM EDTA solution (Nacalai Tesque), split on a 100-mm dish, and cultured under conditions at 37° C. and 5% CO2. Then, the cells which were kept 70 to 80% confluent were detached using trypsin treatment. These cells in one dish were divided into four dishes for passage.
Cells were seeded on a 6-well plate at a cell density of 1.8×10^4 cells/cm^2. This day was designated as day 0. At day 1 corresponding to the next day, the medium was changed to a medium containing any one of hexachlorophene (at a final concentration of 4 μM), HC-2 (at a final concentration of 20 μM), PN-3-13 (at a final concentration of 20 μM), IC-2 (at a final concentration of 40 μM), and 0.1% DMSO. […]

[5] = test system: CD90+CD271+ bone marrow-derived mesenchymal stem cells; assay: Urea assay in CD90+CD271+ bone marrow-derived mesenchymal stem cells; type: cell-based, human; details: hexachlorophene 4 μM, PN-3-13 20 μM, IC-2 40 μM; day 8 plus 96 h ammonium chloride
Description: A urea assay was performed according to the following protocol. CD90^+CD271^+ bone marrow-derived mesenchymal stem cells were seeded on a 24-well plate at a cell density of 1.8×10^4 cells/cm^2. This day was designated as day 0. At day 1 corresponding to the next day, each medium was changed to a medium containing hexachlorophene (at a final concentration of 4 μM), HC-2 (at a final concentration of 20 μM), PN-3-13 (at a final concentration of 20 μM), IC-2 (at a final concentration of 40 μM), or 0.1% DMSO. At day 4, the medium was changed in a manner similar to that at day 1, and the cells were cultured until day 8. At day 8, the medium was removed, and replaced with a medium containing ammonium chloride (Nacalai Tesque) at a final concentration of 5 mM. The cells were further cultured for 96 h. At 96 h after the addition of ammonium chloride, levels of urea in the medium were determined using a QuantiChrom Urea Assay Kit (BioAssay Systems) according to the attached protocol by reading the absorbance at a wavelength of 520 nm with a microplate reader. The levels of urea were calculated based on a standard sample according to the attached calculation method. As a negative control for the urea assay, used were CD90^+CD271^+ bone marrow-derived mesenchymal stem cells that were seeded one day before the day of the immunostaining and were not subjected to the differentiation induction.

[6] = test system: clinical specimen-derived mesenchymal stem cells; assay: PAS staining in clinical specimen-derived mesenchymal stem cells; type: cell-based, human; details: day 8, PN-3-13 20 μM, IC-2 40 μM
Description: PAS staining was performed according to the following procedure. A cover glass that had been sterilized with 100% ethanol was placed on a 12-well plate. Cells were seeded on the cover glass at a cell density of 1.8×10^4 cells/cm^2. This day was designated as day 0. At day 1 corresponding to the next day, each medium was changed to a medium containing HC-2 (at a final concentration of 20 μM), PN-3-13 (at a final concentration of 20 μM), IC-2 (at a final concentration of 40 μM), or 0.1% DMSO. At day 4, the medium was changed in a manner similar to that at day 1, and the cells were cultured until day 8. At day 8, the cells were washed twice with PBS and were fixed with 4% paraformaldehyde for 30 min. As a negative control, α-amylase (Nacalai Tesque) at a final concentration of 10 mg/ml was added, and the cells were incubated therewith at 37° C. for 1 h to digest their glycogen. Subsequently, the cells were treated with 1% aqueous periodic acid for 5 min. Then, the cells were treated with a Schiff reagent (Nacalai Tesque) for 15 min to stain glycogen. After that, the cells were washed three times with aqueous sulfurous acid and were then washed three times with distilled water. The nuclei were stained with Mayer's Hematoxylin (MUTO PURE CHEMICALS CO., LTD.) for 1 min. […]

UE7T-13 cells [7] = details: human
UE7T-13 cells [8] = assay: Periodic acid-Schiff (PAS) staining (UE7T-13); type: cell-based, human
Description: (3-4) Periodic Acid-Schiff (PAS) Staining (UE7T-13) A cover glass (22×22 mm, […]) was sterilized with 70% EtOH and placed in a 6-well plate. Next, cells were seeded on the cover glass and cultured in a medium containing IC-2, etc. At 8, 16, and 24 days after the initiation of the culture, the cells were washed twice with PBS. Then, the cells were treated with 4% paraformaldehyde/PBS for 20 min and fixed onto the cover glass. As a negative control, 10 mg/ml of α-amylase (10 mg/ml; in 0.1 M phosphate buffer solution at pH 6.8) was added, and the cells were incubated therewith at 37° C. for 1 h to digest their glycogen. Subsequently, 1% aqueous periodic acid was used for oxidation treatment for 10 min. After that, the cells were treated with a Schiff reagent for 15 min to stain glycogen. Then, the cells were washed three times with aqueous sulfurous acid and were washed three times with distilled water. After their nuclei were stained with Mayer's hematoxylin, 50% glycerol diluted with PBS was used to mount the cover glass. Finally, the cells were observed under a light microscope. The cells which had been cultured with 0.1% DMSO were used as a control.

β-catenin/Tcf complex = details: Drug Discov. Today 2005, 10, 1467-1474; cited from earlier work

| Compound | levels of expression of albumin, C/EBPα, and CYP1A1 compared with negative control (0.1% DMSO) [1] | concentration that significantly inhibited the Wnt/β-catenin signaling pathway [2] [µM] | concentration with very low cell toxicity toward UE7T-13 cells (UE7T-13 cells [3]) [µM] | expression of albumin [4] | cellular urea synthesis compared with negative control (0.1% DMSO) [5] | cellular glycogen accumulation compared with negative control (0.1% DMSO) [6] | concentration with very low cell toxicity toward UE7T-13 cells (UE7T-13 cells [7]) [µM] | intracellular glycogen accumulation compared with negative control (0.1% DMSO) (UE7T-13 cells [8]) | antagonism of transcriptional activation by a β-catenin/Tcf complex (β-catenin/Tcf complex) |
| --- | --- | --- | --- | --- | --- | --- | --- | --- | --- |
| O=C(N/N=C/c1c(F)c(F)c(F)c(F)c1F)c1ccccc1Oc1ccccc1 [PN-3-13, N′-[(E)-pentafluorophenylmethylidene]-2-phenoxybenzohydrazide] | apparently increased | ≥ 9 | ≤ 10 | induced | apparent increase | apparent increase | – | – | – |
| COc1c(Cl)cc(Cl)c(Cl)c1Cc1c(Cl)c(Cl)cc(Cl)c1OC [HC-1, bis(2,3,5-trichloro-6-methoxyphenyl)methane] | – | ≥ 2 | – | – | – | – | ≤ 8 | – | – |
| O=C1[C@H](Cc2ccc(O)cc2)N2C(=O)CCN(C(=O)NCc3ccccc3)[C@H]2CN1Cc1cccc2ccccc12 [ICG-001] | – | – | – | – | – | – | – | did not increase | potent antagonist |
